Assay results reported in publication PMC4368516 (PLoS Neglected Tropical Diseases, 2015).
Counter-ions that a name gives are not always drawn. Like-named read-outs stand apart in the source and are kept apart here.

Legend:
Ae. aegypti larvae [1] = details: for LT50, Aa: at 400 μM
[2] = system: C. quinquefasciatus larvae; assay: whole plant or invertebrate; details: Culex quinquefasciatus, 72 h, read-out: LC50, Cq
AaDOP2 [3] = target: T1, AaDOP2 (Aedes aegypti, UniProt H6D5H2); assay: cell-based
T1 sequence (H6D5H2 1-476): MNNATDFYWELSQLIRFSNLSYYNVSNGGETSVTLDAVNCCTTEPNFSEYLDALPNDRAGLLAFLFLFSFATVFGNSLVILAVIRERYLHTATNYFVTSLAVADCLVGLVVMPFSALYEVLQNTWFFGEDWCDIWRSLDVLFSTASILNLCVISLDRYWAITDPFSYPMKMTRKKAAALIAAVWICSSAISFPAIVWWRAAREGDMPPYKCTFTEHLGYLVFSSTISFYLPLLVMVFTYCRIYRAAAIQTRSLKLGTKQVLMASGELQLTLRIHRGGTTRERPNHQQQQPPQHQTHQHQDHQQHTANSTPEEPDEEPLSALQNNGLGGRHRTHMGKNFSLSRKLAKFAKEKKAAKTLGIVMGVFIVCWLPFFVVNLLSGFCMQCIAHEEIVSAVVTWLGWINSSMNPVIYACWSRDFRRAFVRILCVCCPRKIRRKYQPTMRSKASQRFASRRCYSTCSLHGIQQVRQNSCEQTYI

CqDOP2 [4] = target: T2, CqDOP2 (Culex quinquefasciatus, UniProt A0A0B5H0X6); assay: cell-based
[5] = system: C. quinquefasciatus larvae; details: for LT50, Cq: at 400 μM; for earliest time debilitated larvae observed after exposure, C. quinquefasciatus: 400 μM; for larval mortality, C. quinquefasciatus, within the first 24 h: 24 h post exposure (S3 Fig)
Ae. aegypti larvae [6] = assay: whole plant or invertebrate; details: Aedes aegypti, 72 h, read-out: LC50, Aa
AaDOP2 [7] = target: T1, AaDOP2; details: cAMP response
CqDOP2 [8] = target: T2, CqDOP2; assay: HTRF cAMP accumulation assay, agonist response of CqDOP2 stably expressed in HEK293 cells; assay type: cell-based; details: for EC50 fold higher than that of dopamine, CqDOP2: cAMP response
AaDOP2 [9] = target: T1, AaDOP2; assay: cell-based; remark: listed apart in the source
Human D1 = target: T3, Human D1 (Homo sapiens, UniProt P21728); assay: Inhibition of dopamine-stimulated cAMP response (HTRF) in HEK293 cells expressing human D1; assay type: cell-based
T3 construct: expressed in transfected cells

CqDOP2 [10] = target: T2, CqDOP2; details: read-out: IC50 for inhibition of dopamine-stimulated cAMP response, CqDOP2; HEK293 cells; dopamine 3 μM; ±SEM
AmDOP2 = details: ref [19]; cited from earlier work
[11] = read-out: IC50 for inhibition of dopamine-stimulated cAMP response, Human D1

T2 sequence (A0A0B5H0X6 entry or part of it): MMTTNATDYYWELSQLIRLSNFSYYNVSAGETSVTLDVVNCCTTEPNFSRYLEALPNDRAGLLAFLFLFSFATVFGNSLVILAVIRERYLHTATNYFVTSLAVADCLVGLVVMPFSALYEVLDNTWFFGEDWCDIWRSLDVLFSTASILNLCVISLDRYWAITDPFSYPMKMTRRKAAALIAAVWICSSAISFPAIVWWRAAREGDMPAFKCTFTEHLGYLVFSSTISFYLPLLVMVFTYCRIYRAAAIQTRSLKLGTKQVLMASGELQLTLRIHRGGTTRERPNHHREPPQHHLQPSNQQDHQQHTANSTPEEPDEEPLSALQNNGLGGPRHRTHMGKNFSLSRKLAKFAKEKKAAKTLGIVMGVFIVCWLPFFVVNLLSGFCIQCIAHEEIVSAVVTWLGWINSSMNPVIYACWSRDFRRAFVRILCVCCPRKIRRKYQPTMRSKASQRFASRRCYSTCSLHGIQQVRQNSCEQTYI
T3 sequence (P21728 whole entry): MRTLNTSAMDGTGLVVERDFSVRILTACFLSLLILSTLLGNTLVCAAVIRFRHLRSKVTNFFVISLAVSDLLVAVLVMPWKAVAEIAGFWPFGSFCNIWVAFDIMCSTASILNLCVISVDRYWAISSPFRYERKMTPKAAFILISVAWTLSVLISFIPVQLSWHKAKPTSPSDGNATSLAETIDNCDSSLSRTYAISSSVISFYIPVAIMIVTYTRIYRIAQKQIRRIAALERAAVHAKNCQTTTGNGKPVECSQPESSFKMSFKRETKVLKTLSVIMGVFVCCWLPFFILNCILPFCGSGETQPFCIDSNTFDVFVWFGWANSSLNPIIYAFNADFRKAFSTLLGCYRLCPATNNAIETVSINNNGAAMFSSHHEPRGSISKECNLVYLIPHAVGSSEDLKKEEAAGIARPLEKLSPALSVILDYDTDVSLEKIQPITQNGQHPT

IC50 (AaDOP2 [3]) [µM]	IC50 (CqDOP2 [4]) [µM]	Molecule	LT50, Aa (Ae. aegypti larvae [1]; L3 larvae, ±SEM, n ≥ 3) [h]	LC50 [2] [µM]	LT50, Cq ([5]; L3 larvae, ±SEM, n ≥ 3) [h]	LC50 (Ae. aegypti larvae [6]) [µM]	further results
0.002 ± 0.0008	0.002 ± 0.0005	OCCN1CCN(CC/C=C2/c3ccccc3Sc3ccc(C(F)(F)F)cc32)CC1 [Cis-(Z)-flupenthixol, cis-(Z)-flupenthixol dihydrochloride]	42.6 ± 2.9	59 ± 22	35.2 ± 6.1	83 ± 25	
		CN(C)CC/C=C1/c2ccccc2Sc2ccc(Cl)cc21 [Chlorprothixene]	22.2 ± 3.2	41 ± 7	13.9 ± 2.0	62 ± 9	larval mortality, Ae. aegypti, after 48 h (Ae. aegypti larvae [1]; 48 h post exposure (S4 Fig)): > 70%; earliest time debilitated larvae observed after exposure, Ae. aegypti (Ae. aegypti larvae [1]; in vivo): 2 h; earliest time debilitated larvae observed after exposure, C. quinquefasciatus [5]: 1 h; larval mortality, C. quinquefasciatus, within the first 24 h [5]: > 70%
		CNC[C@H](O)c1ccc(O)c(O)c1 [Epinephrine, (-)-epinephrine bitartrate]					EC50 fold higher than that of dopamine, AaDOP2 (AaDOP2 [7]): at least 10 fold; EC50 (CqDOP2 [8]): 80.8 ± 21 µM; EC50 fold higher than that of dopamine, CqDOP2 (CqDOP2 [8]): at least 10 fold; EC50 (AaDOP2 [9]): 41.1 ± 10.5 µM
		CN(C)CCCN1c2ccccc2CCc2ccc(Cl)cc21 [Clomipramine]	28.7 ± 3.1	89 ± 19	27.3 ± 3.0	88 ± 24	
		(±) butaclamol hydrochloride [(±)-Butaclamol]					IC50 (CqDOP2 [10]): 0.172 ± 0.015 µM
0.0007 ± 0.0002	0.0008 ± 3e-05	CN1CC2c3ccccc3Oc3ccc(Cl)cc3C2C1 (stereo not shown) [Asenapine, asenapine maleate]	36.4 ± 1.6	50 ± 10	24.2 ± 1.3	102 ± 22	larval mortality, Ae. aegypti, after 48 h (Ae. aegypti larvae [1]; in vivo): > 70%; IC50 (Human D1; [11]): 0.101 ± 0.002 µM
0.469 ± 0.071	0.248 ± 0.042	CCNC(=O)N1CCN(CCCC(c2ccc(F)cc2)c2ccc(F)cc2)CC1 [Amperozide, amperozide hydrochloride]	46.6 ± 6.2	135 ± 35	25.4 ± 1.5	161 ± 20	IC50 (Human D1; [11]): 16.2 ± 4.77 µM
		CSc1ccc2c(c1)C(N1CCN(C)CC1)Cc1ccccc1S2 (stereo not shown) [Methiothepin]	30.6 ± 1.4		15.7 ± 4.9		larval mortality, Ae. aegypti, after 48 h (Ae. aegypti larvae [1]; 48 h post exposure (S4 Fig)): > 70%; LC50 (Ae. aegypti larvae [1]; read-out: LC50, Aa, L3 larvae, 72 h exposure, ±SEM, n ≥ 3): 69 ± 12 µM; earliest time debilitated larvae observed after exposure, C. quinquefasciatus [5]: 1 h; larval mortality, C. quinquefasciatus, within the first 24 h [5]: > 70%; LC50 ([5]; read-out: LC50, Cq, L3 larvae, 72 h exposure, ±SEM, n ≥ 3): 44 ± 3 µM
		NC[C@H](O)c1ccc(O)c(O)c1 [Norepinephrine, L (-)-norepinephrine bitartrate]					EC50 fold higher than that of dopamine, AaDOP2 (AaDOP2 [7]): at least 10 fold; EC50 (CqDOP2 [8]): 52.2 ± 13.8 µM; EC50 fold higher than that of dopamine, CqDOP2 (CqDOP2 [8]): at least 10 fold; EC50 (AaDOP2 [9]): 30.3 ± 7.5 µM; fold more agonist required than dopamine, AmDOP2 (AmDOP2): approximately 25 fold
0.709 ± 0.187	0.745 ± 0.062	CN1CCc2cc(Cl)c(O)cc2[C@@H](c2ccccc2)C1 [SCH23390, SCH23390 hydrochloride]					
		CN1CCN2c3ccccc3Cc3ccccc3C2C1 (stereo not shown) [Mianserin]	22.8 ± 1.3		17.9 ± 3.0		

Molecule	IC50 (AaDOP2 [3]) [µM]	IC50 (CqDOP2 [4]) [µM]	LT50, Aa (Ae. aegypti larvae [1]; L3 larvae, ±SEM, n ≥ 3) [h]	LC50 [2] [µM]	LT50, Cq ([5]; L3 larvae, ±SEM, n ≥ 3) [h]	LC50 (Ae. aegypti larvae [6]) [µM]	further results
CN(C)CCC=C1c2ccccc2CCc2ccccc21 [Amitriptyline, amitriptyline hydrochloride]	0.0064 ± 0.002	0.0033 ± 0.0004	47.8 ± 6.3	165 ± 37	41.7 ± 2.1	208 ± 137	IC50 (Human D1): 0.69 ± 0.052 µM
CN(C)CCCN1c2ccccc2Sc2ccc(Cl)cc21 [Chlorpromazine, chlorpromazine hydrochloride]	0.019 ± 0.001	0.0074 ± 0.002	26.1 ± 0.9	64 ± 9	16.7 ± 1.1	88 ± 9	larval mortality, Ae. aegypti, after 48 h (Ae. aegypti larvae [1]; 48 h post exposure (S4 Fig)): > 70%; earliest time debilitated larvae observed after exposure, C. quinquefasciatus [5]: 1 h; larval mortality, C. quinquefasciatus, within the first 24 h [5]: > 70%
